This is an account of results in PMC9856155, “Protein Conformational Dynamics Underlie Selective Recognition of Thermophilic over Mesophilic Enzyme I by a Substrate Analogue” (Biomolecules, 2023).

Where two headings read alike, the source gives them in different places.

This assay deals with T1, Enzyme I C-terminal domain (tEIC) (Caldanaerobacter subterraneus, UniProt Q8R7R4).
T1 construct: gene PtsA; EIC, C-terminal domain (residues 261–575)
Briefly: 1H-15N TROSY NMR chemical shift perturbation titration. The assay is classed as binding. The source says: 1H-15N TROSY NMR chemical shift perturbation titration on Enzyme I C-terminal domain (tEIC) | both cPEP and SEP induce significant CSPs on the spectra of tEIC localized in the vicinity of the PEP binding site | SEP is particularly interesting as it binds to the thermophilic enzyme with a KD similar to the physiological substrate

T1 sequence (Q8R7R4 250-573): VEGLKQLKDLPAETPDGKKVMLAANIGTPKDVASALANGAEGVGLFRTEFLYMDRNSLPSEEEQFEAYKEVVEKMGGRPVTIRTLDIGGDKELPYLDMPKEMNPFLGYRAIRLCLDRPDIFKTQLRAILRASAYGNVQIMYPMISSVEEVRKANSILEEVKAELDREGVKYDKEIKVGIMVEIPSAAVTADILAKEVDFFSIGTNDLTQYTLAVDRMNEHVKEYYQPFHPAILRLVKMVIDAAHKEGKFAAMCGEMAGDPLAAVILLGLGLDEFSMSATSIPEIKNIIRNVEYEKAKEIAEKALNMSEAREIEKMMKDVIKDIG

Usually Kd stands for the concentration at which binding is half-saturated. On to `C=C(OS(=O)(=O)O)C(=O)O` [SEP, sulfoenolpyruvate], for which the Kd (read-out: Kd) worked out at 600 µM.
Regarding `C=C(CP(=O)(O)O)C(=O)O` [cPEP, allylicphosphonate], the Kd stood at 2800 µM.
